Measurements published in paper PMC12610713, “Inhibition Profiling of Rhodiola crenulata on Lactate Dehydrogenase Isoenzymes” (Molecules, 2025).
Read-outs that look alike come from different tables or passages of the source.

Experiments:
MDA-MB-231 cells = assay: Cell viability assay (CCK-8) MDA-MB-231; format: cell-based; conditions: Homo sapiens, 72 h incubation, read-out: IC50 against MDA-MB-231
Experimental: (§1) The MDA-MB-231 and HepG2 cell lines, representing triple-negative breast cancer and hepatocellular carcinoma, were selected to evaluate the inhibitory effects of LDHA and LDHB inhibitors. […] Following 72 h of incubation, 10 µL of CCK-8 reagent was added to each well, and cells were further incubated for 1–4 h. Absorbance was measured at 450 nm with a reference wavelength of 600 nm for background correction. Data from three independent experiments (each with three technical replicates) were normalized to the vehicle control (100% viability) and medium-only wells (0% viability).

HepG2 cells = assay: Cell viability assay (CCK-8) HepG2; format: cell-based; conditions: Homo sapiens, 72 h incubation, read-out: IC50 against HepG2
Experimental: as §1

recombinant LDHA [1] = target: T1, recombinant LDHA (Homo sapiens, UniProt P00338); assay: LDHA enzyme activity inhibition assay (NADH oxidation, 340 nm); format: biochemical; design: His-tag; made in house; host or cells: E. coli BL21(DE3); conditions: for LDH inhibitory activity, LDHA compared with LDHB (inhibition rates) / inhibition rate against LDHA (selection for dose-response): components assayed at 10 µM and 40 µM; for LDH inhibitory activity, LDHA compared with LDHB (inhibition rates): Figure 5
recombinant LDHB [2] = target: T2, recombinant LDHB (Homo sapiens, UniProt P07195); assay: LDHB enzyme activity inhibition assay (NADH oxidation, 340 nm); format: biochemical; conditions: for IC50: 0.08 mM sodium pyruvate, 0.04 mM NADH, 10 min pre-incubation, 30 °C, read-out: IC50 against LDHB; for inhibition rate against LDHB (selection for dose-response): components assayed at 10 µM and 40 µM
T2 construct: His-tag; made in house; host or cells: E. coli BL21(DE3)
T2 sequence (P07195 whole entry): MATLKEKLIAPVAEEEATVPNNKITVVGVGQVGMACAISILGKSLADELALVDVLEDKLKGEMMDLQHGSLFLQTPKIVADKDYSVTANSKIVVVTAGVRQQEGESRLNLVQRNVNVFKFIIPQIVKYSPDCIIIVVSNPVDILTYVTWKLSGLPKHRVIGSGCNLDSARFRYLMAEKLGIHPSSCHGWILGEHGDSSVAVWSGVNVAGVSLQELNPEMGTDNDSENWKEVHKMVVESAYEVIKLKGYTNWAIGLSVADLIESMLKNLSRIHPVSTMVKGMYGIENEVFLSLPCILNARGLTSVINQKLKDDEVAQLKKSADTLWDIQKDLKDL
Experimental: The Z’ factor (Z’ = 1 − [3 × (σₚ + σₙ)]/|μₚ − μₙ|) was used to evaluate the robustness of the screening platform, where σ represents the standard deviation, μ represents the mean value, p denotes enzyme activity, and n denotes the background signal. […] (2) The enzyme-inhibitor mixture was pre-incubated for 10 min at room temperature. […] (4) At 30 °C, the enzymatic reaction was monitored at 340 nm for 20 min.
For the enzyme activity assay, the concentrations of the R. crenulata extract were 20 µg/mL, while the 19 isolated components was assayed at 10 µM and 40 µM.

recombinant LDHB [3] = target: T2, recombinant LDHB; assay: Michaelis-Menten kinetics of recombinant LDHB; format: biochemical; conditions: pyruvate varied with NADH 0.6 mM; NADH varied with sodium pyruvate 1 mM
Experimental: (§2) Based on comprehensive literature evidence and systematic experimental validation, we established optimized enzymatic assay platforms for LDHA and LDHB inhibitor screening. In the platforms, 60 µL of purified enzyme solution (1.95 nM final concentration) was loaded into 96-well plates, followed by 140 µL of a 1:1 (v/v) pyruvate/NADH substrate mixture. Reactions were conducted in 0.1 M Tris-HCl buffer (with 10% glycerol, pH 7.4) at 30 °C, and NADH oxidation was kinetically monitored at 340 nm for 20 min. To determine the kinetic parameters, the optimization protocol for LDHA was performed as follows: with NADH fixed at 0.6 mM while varying sodium pyruvate (0.02–2.5 mM) to determine the optimal concentration; and with sodium pyruvate fixed at 1 mM while varying NADH (0.01–0.7 mM) to determine the optimal concentration. Similarly, the optimization protocol for LDHB was performed as follows: with NADH fixed at 0.6 mM while varying sodium pyruvate (0.01–1.05 mM) to determine the optimal concentration; and with sodium pyruvate fixed at 1 mM while varying NADH (0.01–0.7 mM) to determine the optimal concentration. The initial reaction rates were derived by analyzing the progress curves with OriginPro 2023 (OriginLab Co., Northampton, MA, USA). Kinetic parameters (Km and Vmax) were derived by nonlinear regression analysis of the Michaelis-Menten equation using GraphPad Prism 8.0 (GraphPad Software, San Diego, CA, USA).

recombinant LDHA [4] = target: T1, recombinant LDHA; assay: Michaelis-Menten kinetics of recombinant LDHA; conditions: pyruvate varied with NADH 0.6 mM, NADH varied with sodium pyruvate 1 mM
CC(=O)C(=O)O [5] = assay: purified protein, by the assay type; conditions: other: pyruvate varied with NADH 0.6 mM; NADH varied with sodium pyruvate 1 mM; pH 7.4; 30.0 °C
CC(=O)C(=O)O [6] = tested on: T3, CC(=O)C(=O)O; assay: Michaelis-Menten kinetics of recombinant LDHB; format: biochemical, homo sapiens; conditions: other: pyruvate varied with NADH 0.6 mM; NADH varied with sodium pyruvate 1 mM; pH 7.4; 30.0 °C
T3 construct: His-tag; made in house; host or cells: E. coli BL21(DE3)
Experimental: as §2

[7] = 0.16 mM sodium pyruvate, 0.04 mM NADH, 10 min pre-incubation, 30 °C, read-out: IC50 against LDHA

| Molecule | IC50 (MDA-MB-231 cells) [µM] | IC50 (HepG2 cells) [µM] | IC50 (recombinant LDHA [1]; [7]) [µM] | inhibition rate against LDHA (selection for dose-response) (recombinant LDHA [1]) | IC50 (recombinant LDHB [2]) [µM] | inhibition rate against LDHB (selection for dose-response) (recombinant LDHB [2]) | LDH inhibitory activity, LDHA compared with LDHB (inhibition rates) (recombinant LDHA [1]) | further results |
| --- | --- | --- | --- | --- | --- | --- | --- | --- |
| O=C(O[C@@H]1Cc2c(O)cc(O)cc2O[C@@H]1c1ccc(O)c(O)c1)c1cc(O)c(O)c(O)c1 [Epicatechin gallate, epicatechin gallate] | 23.5 ± 1 | 33.8 ± 1 | 2.27 ± 0.23 | exceeding 80% |  |  | stronger inhibition against LDHA than LDHB |  |
| NC(=O)C1=CN([C@@H]2O[C@H](COP(=O)([O-])OP(=O)([O-])OC[C@H]3O[C@@H](n4cnc5c(N)ncnc54)[C@H](O)[C@@H]3O)[C@@H](O)[C@H]2O)C=CC1.[Na+].[Na+] [NADH, β-Nicotinamide adenine dinucleotide disodium salt] |  |  |  |  |  |  |  | Km (recombinant LDHB [3]): 40 ± 5 µM; Vmax of LDHB (recombinant LDHB [3]): 10.05 ± 0.33 µM/min; Vmax of LDHA (recombinant LDHA [4]): 15.37 ± 0.57 µM/min; Km (recombinant LDHA [4]; read-out: Km of LDHA): 39 ± 6 µM |
| O=c1c(O)c(-c2ccc(O)c(O)c2)oc2cc(O)cc(O)c12 [Quercetin] | 27.3 ± 1.5 | 54.8 ± 3 | 0.27 ± 0.02 | exceeding 80% | 0.87 ± 0.07 | exceeding 80% | stronger inhibition against LDHA than LDHB |  |
| Cc1cc2c(C(C)C)c(O)c(O)c(C=O)c2c(O)c1-c1c(C)cc2c(C(C)C)c(O)c(O)c(C=O)c2c1O [gossypol, reference compound] |  |  |  |  |  |  |  | IC50 (recombinant LDHA [1]): 0.19 ± 0.05 µM |
| recombinant LDHA (Homo sapiens) |  |  |  |  |  |  |  | Km (CC(=O)C(=O)O [5]): 160 ± 27 µM |
| recombinant LDHB (Homo sapiens) |  |  |  |  |  |  |  | Km (CC(=O)C(=O)O [6]): 74 ± 19 µM |

More lines, main results first:

| IC50 (MDA-MB-231 cells) [µM] | IC50 (HepG2 cells) [µM] | IC50 (recombinant LDHA [1]; [7]) [µM] | inhibition rate against LDHA (selection for dose-response) (recombinant LDHA [1]) | IC50 (recombinant LDHB [2]) [µM] | inhibition rate against LDHB (selection for dose-response) (recombinant LDHB [2]) | Molecule | LDH inhibitory activity, LDHA compared with LDHB (inhibition rates) (recombinant LDHA [1]) | further results |
| --- | --- | --- | --- | --- | --- | --- | --- | --- |
| 54.3 ± 2.5 | 59 ± 3 |  |  |  |  | O=c1oc2c(O)c(O)cc3c(=O)oc4c(O)c(O)cc1c4c23 [Ellagic acid] | stronger inhibition against LDHA than LDHB |  |
| 37.5 ± 2 | 50 ± 2.5 | 0.7 ± 0.13 | exceeding 80% | 8.69 ± 0.85 | exceeding 80% | O=c1c(O)c(-c2ccc(O)cc2)oc2cc(O)cc(O)c12 [Kaempferol, kaempferol] | stronger inhibition against LDHA than LDHB | potency in inhibiting LDHA relative to LDHB (IC50 comparison) (recombinant LDHA [1]; LDHA vs LDHB): more than 10 fold |
| 25.1 ± 1 | 74 ± 3.5 |  | exceeding 80% | 2.71 ± 0.39 | exceeding 80% | O=c1cc(-c2ccc(O)c(O)c2)oc2cc(O)cc(O)c12 [Luteolin, luteolin] | stronger inhibition against LDHA than LDHB |  |
